In brackets after ≈: the same amount, converted by molar mass. Where two headings read alike, the source gives them in different places.
Tests used:
Bacillus subtilis B-558 = assay: M.I.C. by standard serial dilution method; assay type: cell-based; conditions: B558, B. subtilis B-558, nutrient agar, 37° C, 18 hours, read-out: minimum inhibitory concentration (M.I.C.)
Description: (§1) These particular compounds, that is, 1-n-(α-hydroxy-ω-aminoalkanoyl)-3'-deoxy-5-O-pentofuranosylneamines according to the aforesaid general formula (I) have useful antibacterial activity against a wide variety of bacteria, including gram-negative bacteria and gram-positive bacteria. The minimum inhibitory concentration (M.I.C.) (mcg/ml) of these compounds against various organisms was determined by a standard serial dilution method at an incubation temperature of 37° C, the estimation being made after 18 hours incubation or each test organism, except that the incubation time was 48 hours for Mycobacterium smegmatis. The incubation medium used was nutrient agar.

Sarcina lutea PCl 1001 = assay: M.I.C. by standard serial dilution method; assay type: cell-based; conditions: Micrococcus luteus, PCL1001, nutrient agar, 37° C, 18 hours, read-out: minimum inhibitory concentration (M.I.C.)
Description: as §1

[1] = tested on: Pseudomonas aeruginosa TI-13; assay: M.I.C. by standard serial dilution method; assay type: cell-based; conditions: TI13, P. aeruginosa TI-13, nutrient agar, 37° C, 18 hours, read-out: minimum inhibitory concentration (M.I.C.)
Description: as §1

[2] = tested on: Pseudomonas aeruginosa A3; assay: M.I.C. by standard serial dilution method; assay type: cell-based; conditions: P. aeruginosa A3, nutrient agar, 37° C, 18 hours, read-out: minimum inhibitory concentration (M.I.C.)
Description: as §1

[3] = tested on: Escherichia coli K-12 LA 290 R56; assay: M.I.C. by standard serial dilution method; assay type: cell-based; conditions: K12LA290R56, 18 h, read-out: minimum inhibitory concentration (M.I.C.)
Description: as §1

[4] = tested on: Escherichia coli K-12 ML 1630; assay: M.I.C. by standard serial dilution method; assay type: cell-based; conditions: K12ML1630, E. coli K-12 ML 1630, nutrient agar, 37° C, 18 hours, read-out: minimum inhibitory concentration (M.I.C.)
Description: as §1

[5] = tested on: Escherichia coli K-12 LA 290 R64; assay: M.I.C. by standard serial dilution method; assay type: cell-based; conditions: K12LA290R64, 18 h, read-out: minimum inhibitory concentration (M.I.C.)
Description: as §1

Salmonella typhosa T-63 = assay: M.I.C. by standard serial dilution method; assay type: cell-based; conditions: Salmonella enterica, 18 h, read-out: minimum inhibitory concentration (M.I.C.)
Description: as §1

[6] = tested on: Escherichia coli K-12 W677; assay: M.I.C. by standard serial dilution method; assay type: cell-based; conditions: K12W677, E. coli K-12 W677, nutrient agar, 37° C, 18 hours, read-out: minimum inhibitory concentration (M.I.C.)
Description: as §1

[7] = tested on: Klebsiella pneumoniae Type 22, No. 3038; assay: M.I.C. by standard serial dilution method; assay type: cell-based; conditions: read-out: minimum inhibitory concentration (M.I.C.)
Description: as §1

[8] = tested on: Mycobacterium smegmatis ATCC 607; assay: M.I.C. by standard serial dilution method; assay type: cell-based; conditions: Mycolicibacterium smegmatis, ATCC607, nutrient agar, 37° C, 48 hours, read-out: minimum inhibitory concentration (M.I.C.)
Description: as §1

[9] = tested on: Escherichia coli K-12 ML 1410 R81; assay: M.I.C. by standard serial dilution method; assay type: cell-based; conditions: 18 h, read-out: minimum inhibitory concentration (M.I.C.)
Description: as §1

[10] = tested on: Klebsiella pneumoniae PCI 602; assay: M.I.C. by standard serial dilution method; assay type: cell-based; conditions: read-out: minimum inhibitory concentration (M.I.C.)
Description: as §1

Proteus rettgeri GN 466 = assay: M.I.C. by standard serial dilution method; assay type: cell-based; conditions: Providencia rettgeri, read-out: minimum inhibitory concentration (M.I.C.)
Description: as §1

[11] = tested on: Escherichia coli K-12 ML 1629; assay: M.I.C. by standard serial dilution method; assay type: cell-based; conditions: read-out: minimum inhibitory concentration (M.I.C.)
Description: as §1

Escherichia coli NIHJ = assay: M.I.C. by standard serial dilution method; assay type: cell-based; conditions: E. coli NIHJ, nutrient agar, 37° C, 18 hours, read-out: minimum inhibitory concentration (M.I.C.)
Description: as §1

[12] = tested on: Escherichia coli K-12 JR66/W677; assay: M.I.C. by standard serial dilution method; assay type: cell-based; conditions: K12JR66/W677, 18 h, read-out: minimum inhibitory concentration (M.I.C.)
Description: as §1

[13] = tested on: Staphylococcus aureus FDA 209P; assay: M.I.C. by standard serial dilution method; assay type: cell-based; conditions: FDA209P, read-out: minimum inhibitory concentration (M.I.C.)
Description: as §1

[14] = tested on: Pseudomonas aeruginosa GN 315; assay: M.I.C. by standard serial dilution method; assay type: cell-based; conditions: GN315, P. aeruginosa GN 315, nutrient agar, 37° C, 18 hours, read-out: minimum inhibitory concentration (M.I.C.)
Description: as §1

[15] = tested on: Pseudomonas aeruginosa 99; assay: M.I.C. by standard serial dilution method; assay type: cell-based; conditions: P. aeruginosa 99, nutrient agar, 37° C, 18 hours, read-out: minimum inhibitory concentration (M.I.C.)
Description: as §1

Proteus rettgeri GN 311 = assay: M.I.C. by standard serial dilution method; assay type: cell-based; conditions: Providencia rettgeri, GN311, nutrient agar, 37° C, 18 hours, read-out: minimum inhibitory concentration (M.I.C.)
Description: as §1

Escherichia coli K-12 = assay: M.I.C. by standard serial dilution method; assay type: cell-based; conditions: K12, E. coli K-12, nutrient agar, 37° C, 18 hours, read-out: minimum inhibitory concentration (M.I.C.)
Description: as §1

[16] = tested on: Pseudomonas aeruginosa No. 12; assay: M.I.C. by standard serial dilution method; assay type: cell-based; conditions: P. aeruginosa No. 12, nutrient agar, 37° C, 18 hours, read-out: minimum inhibitory concentration (M.I.C.)
Description: as §1

[17] = tested on: Escherichia coli K-12 LA 290 R55; assay: M.I.C. by standard serial dilution method; assay type: cell-based; conditions: K12LA290R55, 18 h, read-out: minimum inhibitory concentration (M.I.C.)
Description: as §1

[18] = tested on: Escherichia coli K-12 ML 1410; assay: M.I.C. by standard serial dilution method; assay type: cell-based; conditions: K12ML1410, E. coli K-12 ML 1410, nutrient agar, 37° C, 18 hours, read-out: minimum inhibitory concentration (M.I.C.)
Description: as §1

[19] = tested on: kanamycin-resistant bacteria; conditions: in words, prior work; cited from earlier work
[20] = clinical tests, in words; cited from earlier work
[21] = K. pneumoniae Type 22, No. 3038, nutrient agar, 37° C, 18 hours
[22] = PCI602, K. pneumoniae PCI 602, nutrient agar, 37° C, 18 hours
[23] = GN466, Proteus rettgeri GN 466, nutrient agar, 37° C, 18 hours
[24] = K12ML1629, E. coli K-12 ML 1629, nutrient agar, 37° C, 18 hours
[25] = S. aureus FDA 209P, nutrient agar, 37° C, 18 hours

NCC[C@H](O)C(=O)N[C@@H]1C[C@H](N)[C@@H](O[C@H]2O[C@H](CN)[C@@H](O)C[C@H]2N)[C@H](O[C@@H]2O[C@@H](CO)[C@H](O)[C@H]2O)[C@H]1O [Compound No. 3, 1-N-((S)-4-amino-2-hydroxybutyryl)-3'-deoxy-5-O-α-L-arabinofuranosylneamine]
MIC (Bacillus subtilis B-558): 0.2 µg/mL (≈ 0.371 µM)
MIC (Sarcina lutea PCl 1001): 25 µg/mL (≈ 46.3 µM)
MIC [1]: 25 µg/mL (≈ 46.3 µM)
MIC [2]: 0.78 µg/mL (≈ 1.45 µM)
MIC [3]: 0.39 µg/mL (≈ 0.723 µM)
MIC [4]: 0.78 µg/mL (≈ 1.45 µM)
MIC [5]: 0.2 µg/mL (≈ 0.371 µM)
MIC (Salmonella typhosa T-63): 0.78 µg/mL (≈ 1.45 µM)
MIC [6]: 0.39 µg/mL (≈ 0.723 µM)
MIC [7, 21]: 0.39 µg/mL (≈ 0.723 µM)
MIC [8]: 0.2 µg/mL (≈ 0.371 µM)
MIC [9]: 1.56 µg/mL (≈ 2.89 µM)
MIC [10, 22]: 0.39 µg/mL (≈ 0.723 µM)
MIC (Proteus rettgeri GN 466; [23]): 0.78 µg/mL (≈ 1.45 µM)
MIC [11, 24]: 0.39 µg/mL (≈ 0.723 µM)
MIC (Escherichia coli NIHJ): 0.78 µg/mL (≈ 1.45 µM)
MIC [12]: 1.56 µg/mL (≈ 2.89 µM)
MIC [13, 25]: 0.39 µg/mL (≈ 0.723 µM)
MIC [14]: > 100 µg/mL
MIC [15]: 6.25 µg/mL (≈ 11.6 µM)
MIC (Proteus rettgeri GN 311): 3.12 µg/mL (≈ 5.78 µM)
MIC (Escherichia coli K-12): 0.39 µg/mL (≈ 0.723 µM)
MIC [16]: 12.5 µg/mL (≈ 23.2 µM)
MIC [17]: 1.56 µg/mL (≈ 2.89 µM)
MIC [18]: 0.78 µg/mL (≈ 1.45 µM)

NC[C@H](O)C(=O)N[C@@H]1C[C@H](N)[C@@H](O[C@H]2O[C@H](CN)[C@@H](O)C[C@H]2N)[C@H](O[C@@H]2O[C@H](CO)[C@H](O)[C@H]2O)[C@H]1O [Compound No. 2, 1-n-((S)-3-amino-2-hydroxypropionyl)-3'-deoxy-5-O-β-D-xylofuranosylneamine]
MIC (Bacillus subtilis B-558): 0.78 µg/mL (≈ 1.48 µM)
MIC (Sarcina lutea PCl 1001): 25 µg/mL (≈ 47.6 µM)
MIC [1]: 25 µg/mL (≈ 47.6 µM)
MIC [2]: 3.12 µg/mL (≈ 5.94 µM)
MIC [3]: 0.78 µg/mL (≈ 1.48 µM)
MIC [4]: 1.56 µg/mL (≈ 2.97 µM)
MIC [5]: 0.78 µg/mL (≈ 1.48 µM)
MIC (Salmonella typhosa T-63): 0.78 µg/mL (≈ 1.48 µM)
MIC [6]: 0.78 µg/mL (≈ 1.48 µM)
MIC ([7]; 18 h): 1.56 µg/mL (≈ 2.97 µM)
MIC [8]: 0.39 µg/mL (≈ 0.742 µM)
MIC [9]: 3.12 µg/mL (≈ 5.94 µM)
MIC ([10]; PCI602, 18 h): 1.56 µg/mL (≈ 2.97 µM)
MIC (Proteus rettgeri GN 466; GN466, 18 h): 1.56 µg/mL (≈ 2.97 µM)
MIC ([11]; K12ML1629, 18 h): 1.56 µg/mL (≈ 2.97 µM)
MIC (Escherichia coli NIHJ): 0.78 µg/mL (≈ 1.48 µM)
MIC [12]: 0.78 µg/mL (≈ 1.48 µM)
MIC ([13]; 18 h): 1.56 µg/mL (≈ 2.97 µM)
MIC [14]: > 100 µg/mL
MIC [15]: 12.5 µg/mL (≈ 23.8 µM)
MIC (Proteus rettgeri GN 311): 6.25 µg/mL (≈ 11.9 µM)
MIC (Escherichia coli K-12): 0.39 µg/mL (≈ 0.742 µM)
MIC [16]: 12.5 µg/mL (≈ 23.8 µM)
MIC [17]: 0.78 µg/mL (≈ 1.48 µM)
MIC [18]: 3.12 µg/mL (≈ 5.94 µM)

NC[C@@H]1CC[C@@H](N)[C@@H](O[C@H]2[C@H](O)[C@@H](O[C@H]3O[C@H](CO)[C@@H](O)[C@H](N)[C@H]3O)[C@H](N)C[C@@H]2N)O1 [DKB, 3',4'-dideoxykanamycin B]
antibacterial activity against resistant bacteria [19]: high antibacterial activity against the above-mentioned resistant bacteria
clinical usefulness [20]: very useful and effective semi-synthetic antibiotic in clinical tests

NCC[C@H](O)C(=O)N[C@@H]1C[C@H](N)[C@@H](O[C@H]2O[C@H](CN)[C@@H](O)C[C@H]2N)[C@H](O[C@@H]2O[C@H](CN)[C@H](O)[C@H]2O)[C@H]1O [compound 4, 1-N-((S)-4-amino-2-hydroxybutyryl)-5-O-(5-amino-5-deoxy-β-D-xylofuranosyl)-3'-doxyneamine]
MIC (Bacillus subtilis B-558): 0.2 µg/mL (≈ 0.371 µM)
MIC (Sarcina lutea PCl 1001): 3.12 µg/mL (≈ 5.79 µM)
MIC [1]: 3.12 µg/mL (≈ 5.79 µM)
MIC [2]: 0.39 µg/mL (≈ 0.724 µM)
MIC [3]: 0.78 µg/mL (≈ 1.45 µM)
MIC [4]: 0.78 µg/mL (≈ 1.45 µM)
MIC [5]: 0.39 µg/mL (≈ 0.724 µM)
MIC (Salmonella typhosa T-63): 0.2 µg/mL (≈ 0.371 µM)
MIC [6]: 0.39 µg/mL (≈ 0.724 µM)
MIC [7, 21]: 0.39 µg/mL (≈ 0.724 µM)
MIC [8]: 0.2 µg/mL (≈ 0.371 µM)
MIC [9]: 0.78 µg/mL (≈ 1.45 µM)
MIC [10, 22]: 0.39 µg/mL (≈ 0.724 µM)
MIC (Proteus rettgeri GN 466; [23]): 0.78 µg/mL (≈ 1.45 µM)
MIC [11, 24]: 0.39 µg/mL (≈ 0.724 µM)
MIC (Escherichia coli NIHJ): 0.2 µg/mL (≈ 0.371 µM)
MIC [12]: 0.2 µg/mL (≈ 0.371 µM)
MIC [13, 25]: 0.39 µg/mL (≈ 0.724 µM)
MIC [14]: > 100 µg/mL
MIC [15]: 3.12 µg/mL (≈ 5.79 µM)
MIC (Proteus rettgeri GN 311): 3.12 µg/mL (≈ 5.79 µM)
MIC (Escherichia coli K-12): 0.2 µg/mL (≈ 0.371 µM)
MIC [16]: 3.12 µg/mL (≈ 5.79 µM)
MIC [17]: 0.39 µg/mL (≈ 0.724 µM)
MIC [18]: 0.78 µg/mL (≈ 1.45 µM)

Reference: US4065616A, “Processes for production of a 1-N-(α-hydroxy-.PHI.-amino alkanoyl)-3-deoxy-5-O-pentafuranosyl neamine and new compounds produced by the same processes” (Zaidan Hojin Biseibutsu Kagaku Kenkyu Kai, priority 1975, dated 1977)
